{"source": "patent US20100197605A1", "about": "“THERAPEUTIC USE OF PEPTIDE YGLF AND COMBINATION WITH KVLPVPQ” (priority 2007, published 2010)", "key": {"HIV-1IIIB": {"test_system": "HIV-1IIIB", "assay": "HIV-1 antiviral assay in CEM-SS cells (MTS readout)"}, "HCMV strain AD169": {"test_system": "HCMV strain AD169", "assay": "HCMV plaque formation assay in MRC-5 cells", "format": "cell-based", "experimental": "Ganciclovir was used as positive control. […] The following day, peptides were added and tested in duplicates."}, "TNF-a, spleen cells": {"test_system": "TNF-a, spleen cells", "assay": "Th1/Th2 cytokine profiling assay, TNF-a", "format": "cell-based, Balb/c mice", "details": "10 micrograms per ml; Ovalbumin restimulation; 72 hours", "description": "(§1) The Balb/c mice (originated in 1923, it is a popular strain and is used in many different research disciplines. Also classified as an inbred from the production of 20 or more successive brother-sister matings, the Balb/c mouse is albino and small in size) were immunized on Days 1, 15, and 29 with Ovalbumin (Ovalbumin is the main protein found in egg white, commonly used to stimulate an immunological reaction in test animals) in PBS (5 micrograms/injection). On day 50, spleens of the mice were harvested (3 weeks after last boost with Ovalbumin). […] Thereafter, additional Ovalbumin was added to the cells at 10 micrograms/ml for in vitro restimulation of the cells. 72 hours later, cell supernatants were harvested and assayed using the Becton Dickinson Mouse Th1/Th2 Cytokine CBA Kit. This kit can be used to measure Interleukin-2 (IL-2), Interleukin-4 (IL-4), Interleukin-5 (IL-5), Interferon-γ (IFN-γ), and Tumor Necrosis Factor-α (TNF-α) protein levels in a single sample."}, "IFNγ, spleen cells": {"test_system": "IFNγ, spleen cells", "assay": "Th1/Th2 cytokine profiling assay, IFNγ", "format": "cell-based, Balb/c mice", "details": "10 micrograms per ml; Ovalbumin restimulation; 72 hours", "description": "as §1"}, "IL-2, spleen cells": {"test_system": "IL-2, spleen cells", "assay": "Th1/Th2 cytokine profiling assay, IL-2", "format": "cell-based, Balb/c mice", "details": "10 micrograms per ml; Ovalbumin restimulation; 72 hours", "description": "as §1"}, "IL-4, spleen cells": {"test_system": "IL-4, spleen cells", "assay": "Th1/Th2 cytokine profiling assay, IL-4", "format": "cell-based, Balb/c mice", "details": "10 micrograms per ml; Ovalbumin restimulation; 72 hours", "description": "as §1"}, "IL-5, spleen cells": {"test_system": "IL-5, spleen cells", "assay": "Th1/Th2 cytokine profiling assay, IL-5", "format": "cell-based, Balb/c mice", "details": "10 micrograms per ml; Ovalbumin restimulation; 72 hours", "description": "as §1"}, "HUVEC": {"test_system": "HUVEC", "assay": "Endothelial tube formation assay", "format": "cell-based, human", "details": "10 micrograms per ml, single peptide, 20 hours", "from_the_text": "Positive control was vehicle only."}, "[1]": {"test_system": "cyclic AMP generation in human peripheral blood mononuclear cells (PBMC)", "assay": "cAMP induction assay (ELISA)", "format": "cell-based", "details": "single peptide, 10 min at 37° C.", "experimental": "The cAMP kit was used as an immunoassay for the quantitative determination of cyclic AMP generation in human peripheral blood mononuclear cells (PBMC). PBMC were placed in 96-well microtitier plates (50 microliters of cells at 4×10^6/ml) and 50 microliters of medium alone (background control), forskolin (cAMP positive control; 50 micrograms per ml), or test peptides were added. Plates were mixed and incubated for 10 min at 37° C. and the cells were lysed by the addition of 50 microliters of 3% perchloric acid. NaOH was added to neutralize the samples. Plates were centrifuged for 15 min at 2500 rpm and the supernatants removed. The supernatants (diluted 2-fold in assay buffer) were then assayed for the levels of cAMP by ELISA."}, "RAW 264.7 cells": {"test_system": "RAW 264.7 cells", "assay": "Phagocytosis assay (Fluorescein-labeled Escherichia coli, flow cytometry)", "details": "10 micrograms per ml, single peptide, 30 min preincubation, 60 min ingestion", "protocol": "RAW 264.7 (Mouse leukaemic monocyte macrophage cell line) cells were obtained from ATCC and grown in RPMI 1640 medium containing 10% FBS. Cells were incubated in 12×75 mm tubes at 37° C. with test peptides—10 micrograms per ml—for 30 min prior to adding Fluorescein-labeled Escherichia coli bacteria as the agent to be ingested. After the cells were incubated for additional 60 min at 37° C. and allowed to ingest the Fluorescein-labeled Escherichia coli bacteria, cells were fixed with 1% paraformaldehyde. The samples were then analyzed by flow cytometry to determine the amount of phagocytosis as a function of brightness (the greater the phagocytic activity, the more fluorescence in the macrophage population). Data are reported as % positive and the mean fluorescence intensity (MFI) of positively stained cells."}, "[2]": {"test_system": "hepatitis B virus (HBV) ayw strain", "assay": "HBV experimental assay system, HepG2-2.2.15, secreted HBV DNA by TaqMan PCR", "format": "cell-based", "details": "10 micrograms per ml, six days, HBV DNA in supernatant"}, "[3]": {"test_system": "Human Peripheral Blood Mononuclear Cells (PBMC), B cell proliferation", "assay": "B cell proliferation assay (SAC plus Interleukin-2 stimulated PBMC, 3H-thymidine)", "format": "cell-based", "details": "10 micrograms per ml; single peptide; SAC plus IL-2", "protocol": "Human Peripheral Blood Mononuclear Cells (PBMC) were obtained from normal human donors. The B cell proliferation was induced by stimulation of the cells with the B cell mitogen Staphylococcus aureus Cowans I (SAC) plus Interleukin-2, either in the absence (positive proliferation control), or in the presence of test peptides—10 micrograms per ml—to examine their effects on the B cell response. 10^5/well PBMC were plated in 96-well microtiter plates and assayed in duplicate with the peptides. […] At the end of incubation time, the plates were harvested and the cells counted by liquid scintillation for the incorporation of ^3H-thymidine as a measure of B cell proliferation."}}, "note": "Where no end group is shown, it is not given here."}
{"molecule": "Cc1cn([C@H]2C[C@H](N=[N+]=[N-])[C@@H](CO)O2)c(=O)[nH]c1=O", "note": "[AZT]", "values": [{"measurement": "antiviral activity of positive control compounds", "setting": "HIV-1IIIB", "value": "expected levels of antiviral activity"}]}
{"molecule": "Nc1nc(O)c2ncn(COC(CO)CO)c2n1", "note": "[Ganciclovir]", "values": [{"measurement": "antiviral activity of positive control compound", "setting": "HCMV strain AD169", "value": "expected levels of antiviral activity"}]}
{"molecule": "CC(C)(C)NC(=O)[C@@H]1CN(Cc2cccnc2)CCN1C[C@@H](O)C[C@@H](Cc1ccccc1)C(=O)N[C@H]1c2ccccc2C[C@H]1O", "note": "[indinavir]", "values": [{"measurement": "antiviral activity of positive control compounds", "setting": "HIV-1IIIB", "value": "expected levels of antiviral activity"}]}
{"molecule": "Lys-Val-Leu-Pro-Val-Pro-Gln-OH (KVLPVPQ-OH) [peptide 2]", "values": [{"measurement": "TNF-a spleen cells; TH1 response (% of control)", "setting": "TNF-a, spleen cells", "value": "90.3 % of control"}, {"measurement": "IFNγ spleen cells; TH1 response (% of control)", "setting": "IFNγ, spleen cells", "value": "41.5 % of control"}, {"measurement": "IL-2 spleen cells (% of control)", "setting": "IL-2, spleen cells", "value": "67.3 % of control"}, {"measurement": "IL-4 spleen cells; TH2 response (% of control)", "setting": "IL-4, spleen cells", "value": "94.9 % of control"}, {"measurement": "IL-5 spleen cells; TH2 response (% of control)", "setting": "IL-5, spleen cells", "value": "61.6 % of control"}, {"measurement": "inhibition of the tube formation of endothelial cells", "setting": "HUVEC", "value": 15, "unit": "%"}, {"measurement": "induction of cAMP formation in human peripheral blood cells", "setting": "[1]", "value": 4.1, "unit": "%"}, {"measurement": "increase of the phagocytic activity of murine macrophages", "setting": "RAW 264.7 cells", "value": 20.0, "unit": "%"}]}
{"molecule": "Tyr-Gly-Leu-Phe-OH (YGLF-OH) [peptide 1]", "values": [{"measurement": "inhibition of HBV replication as compared to the virus control infection", "setting": "[2]", "value": "no effect"}, {"measurement": "inhibition of the proliferation of specifically stimulated human B-cells", "setting": "[3]", "value": 18, "unit": "%"}, {"measurement": "TNF-a spleen cells; TH1 response (% of control)", "setting": "TNF-a, spleen cells", "value": "78.9 % of control"}, {"measurement": "IFNγ spleen cells; TH1 response (% of control)", "setting": "IFNγ, spleen cells", "value": "58.6 % of control"}, {"measurement": "IL-2 spleen cells (% of control)", "setting": "IL-2, spleen cells", "value": "0.0 % of control"}, {"measurement": "IL-4 spleen cells; TH2 response (% of control)", "setting": "IL-4, spleen cells", "value": "0.0 % of control"}, {"measurement": "IL-5 spleen cells; TH2 response (% of control)", "setting": "IL-5, spleen cells", "value": "51.1 % of control"}, {"measurement": "inhibition of the tube formation of endothelial cells", "setting": "HUVEC", "value": 24, "unit": "%"}, {"measurement": "induction of cAMP formation in human peripheral blood cells", "setting": "[1]", "value": 5.1, "unit": "%"}, {"measurement": "increase of the phagocytic activity of murine macrophages", "setting": "RAW 264.7 cells", "value": "no inhibitory or activating effects"}]}
